# Experimental data as given in ChEMBL document CHEMBL6083206, “SLL-1A-16 suppresses proliferation and induces autophagy in non-small-cell lung cancer cells via the AKT/mTOR signaling pathway” (RSC Med Chem, 2024).
# pIC50: −log10 of the molar value. The source made the active and inactive calls. The calls are words filed in the database; no cut-off is given here.
# Tests used:
# A549 [1] = test: Antiproliferative activity against human A549 cells assessed as reduction in cell viability incubated for 48 hrs by CCK8 assay; format: functional, cell-based; conditions: A549, 48 h
# NCI-H460 [2] = test: Inhibition of colony formation in human NCI-H460 cells at 10 to 30 uM incubated for 24 hrs by giemsa staining based analysis; format: functional, cell-based; conditions: dose 10-30 µM
# A549 [3] = test: Cell cycle arrest in human A549 cells assessed as accumulation of cells at G1 phase at 10 uM incubated for 24 hrs by PI staining based flow cytometric analysis (reference value: 56.42 +/- 1.36 %); format: functional
# A549 [4] = test: Cell cycle arrest in human A549 cells assessed as accumulation of cells at G1 phase at 30 uM incubated for 24 hrs by PI staining based flow cytometric analysis (reference value: 56.42 +/- 1.36 %); format: functional
# A549 [5] = test: Cell cycle arrest in human A549 cells assessed as downregulation of CDK4 expression at 10 to 30 uM by Western blot analysis; format: functional, cell-based; conditions: dose 10-30 µM
# NCI-H460 [6] = test: Cell cycle arrest in human NCI-H460 cells assessed as downregulation of cyclin D1 expression at 10 to 30 uM by Western blot analysis; format: functional, cell-based; conditions: dose 10-30 µM
# NCI-H460 [7] = test: Cell cycle arrest in human NCI-H460 cells assessed as downregulation of CDK4 expression at 10 to 30 uM by Western blot analysis; format: functional, cell-based; conditions: dose 10-30 µM
# A549 [8] = test: Induction of apoptosis in human A549 cells assessed as viable cells at 10 uM incubated for 24 hrs by Annexin V-FITC/PI staining based flow cytometric analysis (reference value: 96.29 %); format: functional; conditions: read-out: Activity
# A549 [9] = test: Induction of apoptosis in human A549 cells assessed as late apoptotic cells at 10 uM incubated for 24 hrs by Annexin V-FITC/PI staining based flow cytometric analysis (reference value: 2.29 %); format: functional
# A549 [10] = test: Induction of apoptosis in human A549 cells assessed as necrotic cells at 10 uM incubated for 24 hrs by Annexin V-FITC/PI staining based flow cytometric analysis (reference value: 0.97 %); format: functional
# A549 [11] = test: Induction of apoptosis in human A549 cells assessed as early apoptotic cells at 30 uM incubated for 24 hrs by Annexin V-FITC/PI staining based flow cytometric analysis (reference value: 0.44 %); format: functional
# A549 [12] = test: Induction of apoptosis in human A549 cells assessed as necrotic cells at 30 uM incubated for 24 hrs by Annexin V-FITC/PI staining based flow cytometric analysis (reference value: 0.97 %); format: functional
# NCI-H460 [13] = test: Induction of apoptosis in human NCI-H460 cells assessed as late apoptotic cells at 10 uM incubated for 24 hrs by Annexin V-FITC/PI staining based flow cytometric analysis (reference value: 4.15 %); format: functional
# A549 [14] = test: Induction of apoptosis in human A549 cells assessed as upregulation of Bax expression at 10 to 30 uM by Western blot analysis; format: functional, cell-based; conditions: dose 10-30 µM
# A549 [15] = test: Induction of apoptosis in human A549 cells assessed as upregulation of cleaved caspase 3 expression at 10 to 30 uM by Western blot analysis; format: functional, cell-based; conditions: dose 10-30 µM
# NCI-H460 [16] = test: Induction of apoptosis in human NCI-H460 cells assessed as upregulation of Bax expression at 10 to 30 uM by Western blot analysis; format: functional, cell-based; conditions: dose 10-30 µM
# NCI-H460 [17] = test: Induction of apoptosis in human NCI-H460 cells assessed as upregulation of cleaved caspase 3 expression at 10 to 30 uM by Western blot analysis; format: functional, cell-based; conditions: dose 10-30 µM
# NCI-H460 [18] = test: Induction of apoptosis in human NCI-H460 cells assessed as decrease in Bcl2 expression at 10 to 30 uM by Western blot analysis; format: functional, cell-based; conditions: dose 10-30 µM
# NCI-H460 [19] = test: Induction of autophagy in human NCI-H460 cells assessed as increase in fluorescence intensity of anti-LC3 incubated for 48 hrs by immunofluorescence staining based analysis; format: functional, cell-based; conditions: dose 10-30 µM
# A549 [20] = test: Induction of autophagy in human A549 cells assessed as increase in LC3-II expression at 10 to 30 uM incubated for 24 hrs by Western blot analysis; format: functional, cell-based; conditions: dose 10-30 µM
# NCI-H460 [21] = test: Induction of autophagy in human NCI-H460 cells assessed as increase in LC3-II expression at 10 to 30 uM incubated for 24 hrs by Western blot analysis; format: functional, cell-based; conditions: dose 10-30 µM
# NCI-H460 [22] = test: Induction of autophagy in human NCI-H460 cells assessed as increase in Atg5 expression at 10 to 30 uM incubated for 24 hrs by Western blot analysis; format: functional, cell-based; conditions: dose 10-30 µM
# A549 [23] = test: Inhibition of Akt/mTOR signalling pathway in human A549 cells assessed as decrease in phosphorylated Akt expression by Western blot analysis; format: cell-based; conditions: dose 10-30 µM
# A549 [24] = test: Inhibition of Akt/mTOR signalling pathway in human A549 cells assessed as decrease in phosphorylated 4EBP1 expression by Western blot analysis; format: cell-based; conditions: dose 10-30 µM
# A549 [25] = test: Inhibition of Akt/mTOR signalling pathway in human A549 cells assessed as decrease in phosphorylated PRAS40 expression by Western blot analysis; format: cell-based; conditions: dose 10-30 µM
# NCI-H460 [26] = test: Inhibition of Akt/mTOR signalling pathway in human NCI-H460 cells assessed as decrease in phosphorylated Akt expression by Western blot analysis; format: cell-based; conditions: dose 10-30 µM
# NCI-H460 [27] = test: Inhibition of Akt/mTOR signalling pathway in human NCI-H460 cells assessed as decrease in phosphorylated P70 S6k expression by Western blot analysis; format: cell-based; conditions: dose 10-30 µM
# NCI-H460 [28] = test: Inhibition of Akt/mTOR signalling pathway in human NCI-H460 cells assessed as decrease in c-myc expression by Western blot analysis; format: cell-based; conditions: dose 10-30 µM
# A549 [29] = test: Inhibition of Akt/mTOR signaling pathway in human A549 cells assessed as decrease in mTOR expression in presence of temsirolimus by Western blot analysis; format: cell-based
# A549 [30] = test: Inhibition of Akt/mTOR signaling pathway in human A549 cells assessed as decrease in phosphorylated PRAS40 expression in presence of temsirolimus by Western blot analysis; format: cell-based
# A549 [31] = test: Inhibition of Akt/mTOR signaling pathway in human A549 cells assessed as decrease in phosphorylated 4EBP1 expression in presence of temsirolimus by Western blot analysis; format: cell-based
# NCI-H460 [32] = test: Inhibition of Akt/mTOR signaling pathway in human NCI-H460 cells assessed as decrease in phosphorylated 4EBP1 expression in presence of temsirolimus by Western blot analysis; format: cell-based
# [33] = test system: Gefitinib-resistant A549/G cell; test: Inhibition of Akt/mTOR signaling pathway in human Gefitinib-resistant A549/G cell assessed as decrease in phosphorylated […] in presence of gefitinib by Western blot analysis; format: cell-based
# A549 [34] = test: Antitumor activity against human A549 cells xenografted in Balb/c nude mouse assessed as reduction in tumor growth rate at 7.5 to 15 mg/kg, ip administered for 14 days; format: functional, organism-based; conditions: dose 7.5-15 mg/kg, time 14.0 day
# NCI-H460 [35] = test: Induction of apoptosis in human NCI-H460 cells assessed as late apoptotic cells at 30 uM incubated for 24 hrs by Annexin V-FITC/PI staining based flow cytometric analysis (reference value: 4.15 %); format: functional
# NCI-H460 [36] = test: Induction of apoptosis in human NCI-H460 cells assessed as necrotic cells at 30 uM incubated for 24 hrs by Annexin V-FITC/PI staining based flow cytometric analysis (reference value: 0.68 %); format: functional
structure (smiles),measurement,setting,value
N#C[Se]CCCNC(=O)c1cccnc1,pIC50,A549 [1],4.81
same,inhibition,NCI-H460 [2],Active
same,Activity,A549 [3],75.43%
same,Activity,A549 [4],78.51%
same,Activity,A549 [5],Active; G1 Phase Cell Cycle Arrest Observed
same,Activity,NCI-H460 [6],Active; G1 Phase Cell Cycle Arrest Observed
same,Activity,NCI-H460 [7],Active; G1 Phase Cell Cycle Arrest Observed
same,viability at 10 µM,A549 [8],84.8%
same,Activity,A549 [9],8.48%
same,Activity,A549 [10],3.03%
same,Activity,A549 [11],4.58%
same,Activity,A549 [12],5.12%
same,Activity,NCI-H460 [13],8.98%
same,Activity,A549 [14],Active
same,Activity,A549 [15],Active
same,Activity,NCI-H460 [16],Active
same,Activity,NCI-H460 [17],Active
same,Activity,NCI-H460 [18],Active
same,Activity,NCI-H460 [19],Dose-dependent-effect
same,Activity,A549 [20],Active
same,Activity,NCI-H460 [21],Active
same,Activity,NCI-H460 [22],Active
same,inhibition,A549 [23],Dose-dependent-effect; Inhibitory Ability Of Compound Is Comparable To Temsirolimus
same,inhibition,A549 [24],Dose-dependent-effect; Inhibitory Ability Of Compound Is Comparable To Temsirolimus
same,inhibition,A549 [25],Dose-dependent-effect; Inhibitory Ability Of Compound Is Comparable To Temsirolimus
same,inhibition,NCI-H460 [26],Dose-dependent-effect; Inhibitory Ability Of Compound Is Comparable To Temsirolimus
same,inhibition,NCI-H460 [27],Dose-dependent-effect; Inhibitory Ability Of Compound Is Comparable To Temsirolimus
same,inhibition,NCI-H460 [28],Dose-dependent-effect; Inhibitory Ability Of Compound Is Comparable To Temsirolimus
same,inhibition,A549 [29],Active
same,inhibition,A549 [30],Active
same,inhibition,A549 [31],Active
same,inhibition,NCI-H460 [32],Active
same,inhibition,[33],Active
same,Activity,A549 [34],Active; Comparable To 25 Mg/Kg Of Gemcitabine Hydrochloride
same,Activity,NCI-H460 [35],13.81%
same,Activity,NCI-H460 [36],5.22%
